Laboratory results from US11174223B2, “Compositions, methods, and systems for the synthesis and use of imaging agents” (Lantheus Medical Imaging, Inc., priority 2010, dated 2021).

Columns and labels:
NET = NET (Homo sapiens, UniProt P23975); test: Effect of heart failure medications on NET mediated imaging agent-1 uptake in SK-N-SH cells; type: cell-based; design: endogenous in cells; host or cells: SK-N-SH; settings: 1 million cells, 60 minutes
[1] = biological target: T1, norepinephrine transporter (NET) (Homo sapiens, UniProt P23975); test: Uptake and uptake kinetics in SH-SY5Y human neuroblastoma cells; type: cell-based
T1 construct: endogenous in cells; host or cells: SH-SY5Y
Experimental: (§1) Imaging agent-1 was designed as a substrate for the norepinephrine transporter (NET) to image the cardiac sympathetic nervous system. […] These values were similar to that of MIBG (2.12±0.26 μM and 4.76±0.78 pmol/min/million cells). In animals, tissue biodistribution of imaging agent-1 was assessed by tissue sampling at 15- and 60-minute following administration. Heart uptake was 2.36±0.16 and 2.17±0.12% injected dose per g tissue (% ID/g) in rats and 0.25±0.03 and 0.28±0.03% ID/g in rabbits. In rabbits, desipramine (1 mg/kg) inhibited heart uptake of imaging agent-1 by 68% and ^123I-MIBG uptake by 55% at 1 hour post dose.

[2] = test system: norepinephrine transporter (NET), uptake 1; test: Cardiac imaging in NHPs pretreated with desipramine; type: in vivo, nonhuman primates (NHP); settings: desipramine 0.5 mg/kg
Experimental: as §1
Desipramine, a selective uptake 1 inhibitor, was used to block cardiac uptake 1 in rats (10 mg/kg, ip), rabbits (1 mg/kg iv), and NHPs (0.5 mg/kg, iv). 6-hydroxydopamine, a neurotoxin, was injected to induce sympathetic denervation in rats (100 mg/kg ip for 7 days) and rabbits (25 mg/kg iv on day 1, 2, 7, and 8). Imaging agent-1 heart uptake in comparison with MIBG was assessed by tissue sampling at 60 minutes post imaging agent injection. Imaging was also performed with (2-tert-butyl-4-chloro-5-[4-(2-[^18F]fluoroethoxymethyl)-benzyloxy]-2H-pyridazin-3-1.

[3] = Regional myocardial radioactivity concentration by dynamic PET in normal subjects; type: in vivo, human
Experimental: A human study was performed that determined the quantification of normal pattern of regional myocardial radioactivity concentration of imaging agent-1.
Normal subjects (n=6) were injected with ˜220 MBq of imaging agent-1 intravenously, and dynamic PET images were acquired over 80 min without patient movement. Attenuation corrected images were re-oriented into standard cardiac specific axes, and the maximal regional myocardial uptake was quantified on a sector-by-sector basis using WLCQ software. […] Activity was expressed as Bq/ml.

[4] = Cardiac PET imaging in rabbit models of regional and systemic cardiac sympathetic denervation (CSD); type: in vivo, rabbits
Experimental: Rabbit models of regional and systemic CSD were used. To develop regional CSD, a median sternotomy was performed and phenol (89% in liquid) was pained on the anterior and posterior walls of the left ventricle. To develop systemic denervation the neurotoxin, 6-hydroxydopamine (25 mg/kg on day 1, 2, 7 and 8), was administered intravenously. Two weeks following these procedures, rabbits were imaged with imaging agent-1 (˜1.5 mCi, i.v.) using a microPET camera for 30 minutes.

[5] = Dosimetry in non-human primates to estimate human radiation dosimetry; type: in vivo, cynomolgus monkeys
Experimental: Dosimetry in non-human primates of imaging agent-1 was examined. Imaging agent-1, which is labeled with ^18F, is a novel norepinephrine transporter (NET) ligand and was a useful radiotracer for mapping the cardiac nerve terminal in vivo using positron emission tomography. A study was performed in four non-human primates to estimate human radiation dosimetry.
In this study two male and two female cynomolgus monkeys were imaged using a Concord Focus 220 MicroPET scanner for whole body ^18F distribution following 4 to 5 mCi (0.65 to 1.6 μg) single intravenous injection of imaging agent-1. Under isoflurane anesthesia, images of the animals from head to lower abdomen were acquired in 5 segments over four and half hours following injection. Radioactivity in identifiable organs and the remainder of the body was determined as a function of time using region-of-interest analysis. The total number of disintegrations per unit injected dose was determined by normalizing by the injected radioactivity and integrating over time the data for radioactivity versus time. Using the OLINDA/EXM software (Organ Level Internal Dose Assessment/EXponential Modeling Software, published by Vanderbilt University), the normalized number of ^18F disintegrations for each organ was combined with the energy released by each disintegration, and using the MIRD schema, estimates were made of the fraction of the total released energy that was retained in each source organ and the contribution from each source organ to the energy deposited in surrounding target organs for an adult human. Dividing the total fractional energy deposited in each organ by the corresponding organ mass yielded the radiation dose for that organ per unit (mCi or MBq) injected dose.

[6] = estimated from cynomolgus monkey PET

T1 sequence (P23975 whole entry): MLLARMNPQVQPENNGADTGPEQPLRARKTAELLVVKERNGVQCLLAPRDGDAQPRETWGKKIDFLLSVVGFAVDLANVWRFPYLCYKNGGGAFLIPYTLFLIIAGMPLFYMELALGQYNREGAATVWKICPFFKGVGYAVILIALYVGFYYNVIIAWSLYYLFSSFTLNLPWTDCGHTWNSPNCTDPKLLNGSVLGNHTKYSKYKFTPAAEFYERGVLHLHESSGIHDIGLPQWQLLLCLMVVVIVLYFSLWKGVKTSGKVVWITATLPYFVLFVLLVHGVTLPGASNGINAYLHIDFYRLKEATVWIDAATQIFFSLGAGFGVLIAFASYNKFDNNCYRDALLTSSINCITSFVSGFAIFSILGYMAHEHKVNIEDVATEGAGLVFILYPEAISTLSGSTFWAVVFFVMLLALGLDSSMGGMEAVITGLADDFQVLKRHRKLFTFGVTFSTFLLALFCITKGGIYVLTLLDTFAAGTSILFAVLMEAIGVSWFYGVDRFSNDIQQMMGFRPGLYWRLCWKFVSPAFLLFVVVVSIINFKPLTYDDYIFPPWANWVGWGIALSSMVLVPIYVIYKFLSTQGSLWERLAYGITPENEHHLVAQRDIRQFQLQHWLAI
Chain of NET (P23975 whole entry): as above

Cell uptake (NET): 26±2%
Vmax (uptake kinetics) ([1]; SH-SY5Y cells): 5.18±1.23 pmol/min/million cells
Uptake in SH-SY5Y cells in presence of desipramine, a selective NET inhibitor ([1]; SH-SY5Y human neuroblastoma cell line): inhibited by desipramine
Clearance of radiotracer from blood ([3]; normal subjects n=6, ~220 MBq iv): cleared quickly from the blood
Time at which myocardial activity reached a plateau ([3]; post injection): ~60 min
Time of peak of regional and global myocardial activity ([3]; post injection): ≤ 10 min
Myocardial uptake, Apical short axis slice ([3]; ~60 min post injection): 11678±2148 Bq/ml
Myocardial uptake, Base short axis slice ([3]; ~60 min post injection): 11284±2844 Bq/ml
Myocardial uptake, Mid short axis slice ([3]; ~60 min post injection): 11898±2047 Bq/ml
Regional myocardial uptake, Anterior sector ([3]; ~60 min post injection): 11592±2474 Bq/ml
Regional myocardial uptake, Inferior sector ([3]; ~60 min post injection): 11818±1991 Bq/ml
Regional myocardial uptake, Lateral sector ([3]; ~60 min post injection): 11424±2439 Bq/ml
Regional myocardial uptake, Septal sector ([3]; ~60 min post injection): 11647±2829 Bq/ml
Maximum administered dose that does not exceed 10 mSv effective dose ([5]; based on average values): 14 mCi
Maximum dose that may be administered to a human without exceeding 50 mSv (5 rem) to the urinary bladder ([5]; based on average values): 12 mCi
Mean effective dose as defined in ICRP 60 [5, 6]: 0.070±0.0059 rem/mCi
Mean whole body dose estimate [5, 6]: 0.044±0.00031 rem/mCi
Predicted human radiation dose estimate, adrenals [5, 6]: 0.14±0.027 rem/mCi
Predicted human radiation dose estimate, heart wall [5, 6]: 0.085±0.014 rem/mCi
Predicted human radiation dose estimate, kidneys [5, 6]: 0.15±0.088 rem/mCi
Predicted human radiation dose estimate, osteogenic cells [5, 6]: 0.084±0.0048 rem/mCi
Predicted human radiation dose estimate, red bone marrow [5, 6]: 0.083±0.0099 rem/mCi
Predicted human radiation dose estimate, urinary bladder wall ([5]; estimated from cynomolgus monkey PET, OLINDA/EXM): 0.41±0.089 rem/mCi
SMILES: N=C(N)NCc1ccc(OCCC[18F])c(Br)c1 [imaging agent-1, 1-{3-Bromo-4-[3-[^18F]fluoropropoxy]benzyl}guanidine]
Decrease of radioactivity in the heart by desipramine pretreatment (cardiac imaging) [2]: 68%
Global reduction in heart uptake compared to control animals (image based quantification) ([4]; rabbits with systemic denervation (6-hydroxydopamine)): ~80%
Uptake in the treated regions after regional denervation ([4]; rabbits, phenol regional denervation): marked reduction
